In ChEMBL document CHEMBL4725384, “Monoaryl derivatives as transthyretin fibril formation inhibitors: Design, synthesis, biological evaluation and structural analysis” (Bioorg Med Chem, 2020):
Active and inactive are the calls of the source. The rule behind the calls is not given here.

Key:
[1] = target: Transthyretin (Homo sapiens) (UniProt P02766); assay: Stabilization of wild type human transthyretin expressed in Escherichia coli BL21(DE3) assessed as fibril formation at 7.2 uM preincubated for 30 mins with transthyretin followed by measuring after 72 hrs maintaining pH of 4.4 by UV-Visible spectrophotometer relative to control
[2] = target: Transthyretin (Homo sapiens) (UniProt P02766); assay: Stabilization of wild type human transthyretin expressed in Escherichia coli BL21(DE3) assessed as decrease in TTR-amyloid beta fibril formation at 10 uM preincubated for 6 hrs with transthyretin followed by measuring after 96 hrs maintaining pH of 4.4 by thioflavin T binding assay relative to control

With O=C(O)CO/N=C/c1ccc(O)cc1 the Activity [1] was 59%.

With O=C(O)CCO/N=C/c1cc(Br)cc(Br)c1O the Activity [1] was 16% and the inhibition [2] was “Active”.

With O=C(O)CO/N=C/c1ccc(OCC(=O)O)cc1 the Activity [1] was 80% and the inhibition [2] was “inactive”.

For O=C(O)CCO/N=C/c1ccc(O)cc1, the Activity [1] was 17% and the inhibition [2] was “Active”.

In the case of O=C(O)CO/N=C/c1cccc(O)c1, the Activity [1] is reported as 100%.

O=C(O)c1cc(-c2ccc(F)cc2F)ccc1O showed an Activity [1] of 9%.

O=C(O)CO/N=C/c1cc(Br)cc(Br)c1O gave an Activity [1] of 35%.

For O=C(O)CCO/N=C/c1ccc(O)cc1O, the Activity [1] was 38% and the inhibition [2] was 68%.

Compound O=C(O[C@@H]1Cc2c(O)cc(O)cc2O[C@@H]1c1cc(O)c(O)c(O)c1)c1cc(O)c(O)c(O)c1 has an inhibition [2] of 53%.

In the case of O=C(O)CCO/N=C/c1ccc(O)c(O)c1, the Activity [1] is reported as 34%.

Compound O=C(O)CCO/N=C/c1cc(O)cc(O)c1 has an Activity [1] of 39%.

With O=C(O)CO/N=C/c1cccc(OCC(=O)O)c1 the Activity [1] was 100% and the inhibition [2] was “inactive”.

Work on O=C(O)CO/N=C/c1ccccc1O yielded an Activity [1] of 100%.

O=C(O)CCO/N=C/c1ccccc1O was tested, and the Activity [1] was 38% and the inhibition [2] was “Active”.

For O=C(O)CCO/N=C/c1cccc(O)c1, the Activity [1] was 42% and the inhibition [2] was “Active”.

With O=C(O)CO/N=C/c1ccccc1OCC(=O)O the Activity [1] was 100% and the inhibition [2] was “inactive”.

In the case of O=C(O)CO/N=C/c1cc(Br)cc(Br)c1OCC(=O)O, the Activity [1] is reported as 86% and the inhibition [2] is reported as “inactive”.
